For experiment [1], the target named is T1, recombinant human ALK5 (TGF-βR1) protein (Homo sapiens, UniProt P36897).
T1 construct: purchased Life Technologies PR9075A
T1 sequence (P36897 34-503): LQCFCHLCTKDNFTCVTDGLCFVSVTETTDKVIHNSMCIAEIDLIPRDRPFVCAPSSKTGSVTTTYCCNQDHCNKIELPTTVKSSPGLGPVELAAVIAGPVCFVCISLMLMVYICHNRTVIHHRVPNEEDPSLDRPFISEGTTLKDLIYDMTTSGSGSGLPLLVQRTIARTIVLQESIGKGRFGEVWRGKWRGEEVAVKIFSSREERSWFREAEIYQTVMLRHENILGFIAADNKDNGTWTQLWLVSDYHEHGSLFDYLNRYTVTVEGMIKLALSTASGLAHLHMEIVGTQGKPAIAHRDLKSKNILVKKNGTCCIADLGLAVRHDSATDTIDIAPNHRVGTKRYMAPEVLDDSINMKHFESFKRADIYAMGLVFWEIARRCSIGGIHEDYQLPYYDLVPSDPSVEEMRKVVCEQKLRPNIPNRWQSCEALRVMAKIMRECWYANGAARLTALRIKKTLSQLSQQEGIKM
Briefly: Biochemical ALK5 (TGF-βR1) assay to measure pKi (LANCE Ultra ULight kinase assay). Particulars: apparent pKi from pIC50 by Cheng-Prusoff, read-out: ALK5 pKi (converted). A digest of the protocol: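 Compounds (10 μM to 25 pM) preincubated 60 minutes at room temperature with enzyme, then reaction run 60 minutes at 37° C with ATP added as 125 μM (5× final). Stopped with EDTA plus Eu-anti-phospho-Topoisomerase 2-alpha (Thr1342) antibody, TR-FRET read at 665 nm; pIC50 converted to pKi via Cheng-Prusoff.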
(In general: TR-FRET usually uses a lanthanide donor and a delayed reading to cut background.)

In experiment [2] the test system is TGF-β-stimulated SMAD3 phosphorylation in BEAS-2B cells. The experiment can be described thus: Cellular ALK5 potency assay, inhibition of TGF-β stimulated pSMAD3 formation in BEAS-2B cells. The format is cell-based. To be noted: Homo sapiens; inhibition of TGF-β stimulated pSMAD3 formation, BEAS-2B cells; read-out: BEAS2B pIC50 (converted). Put shortly:
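Cells seeded overnight; rinse with supplemented HBSS; compound 1 h at 37 °C; TGF-β 10 ng/mL final, 30 min; lyse; AlphaLISA acceptor and detector beads 2 h apart, read next day. Potency expressed as pIC50.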

On to `Cc1cccc(-c2[nH]ncc2-c2ccc3nccc(C(=O)OCC4CCNCC4)c3c2)n1` [Compound 1225, 4-piperidylmethyl 6-[5-(6-methyl-2-pyridyl)-1H-pyrazol-4-yl]quinoline-4-carboxylate], for which the Ki in experiment [1] is 0.0398 to 0.316 nM. In experiment [2], the IC50 is 25.1 to 158 nM.

With `CNCCn1cc(-c2cnc3ccc(-c4c[nH]nc4-c4cccc(C(F)(F)F)n4)nc3c2)cn1` [Compound 237, N-methyl-2-(4-(6-(3-(6-(trifluoromethyl)pyridin-2-yl)-1H-pyrazol-4-yl)-1,5-naphthyridin-3-yl)-1H-pyrazol-1-yl)ethan-1-amine], the Ki in experiment [1] is less than 0.0316 nM. Moreover, the IC50 in experiment [2] is 25.1 to 158 nM.

With `Cc1cccc(-c2[nH]ncc2-c2ccc3ncc(C(=O)OCCN4CCNCC4)cc3c2)n1` [Compound 876, 2-(piperazin-1-yl)ethyl 6-(5-(6-methylpyridin-2-yl)-1H-pyrazol-4-yl)quinoline-3-carboxylate], the Ki in experiment [1] was 0.0398 to 0.316 nM. The IC50 in experiment [2] is less than 20 nM.

Turning to `Cc1cccc(-c2[nH]cnc2-c2ccc3ncc(NCCN4CCCC4)cc3n2)n1` [Compound 573, 6-[5-(6-methyl-2-pyridyl)-1H-imidazol-4-yl]-N-(2-pyrrolidin-1-ylethyl)-1,5-naphthyridin-3-amine], the Ki in experiment [1] is 0.0398 to 0.316 nM. Moreover, in experiment [2], the IC50 was 25.1 to 158 nM.

As to `Cc1cccc(-c2[nH]cnc2-c2ccc3ncc(-c4ncc(C(=O)O[C@@H]5CCNC5)cn4)cc3c2)n1` [Compound 1079, [(3R)-pyrrolidin-3-yl] 2-[6-[5-(6-methyl-2-pyridyl)-1H-imidazol-4-yl]-3-quinolyl]pyrimidine-5-carboxylate], the Ki in experiment [1] is 0.0398 to 0.316 nM. Besides, in experiment [2], the IC50 was 25.1 to 158 nM.

For the compound `Cc1cccc(-c2[nH]cnc2-c2ccc3ncc(-c4csc(C(=O)O[C@@H]5CCNC5)c4)cc3c2)n1` [Compound 749, [(3R)-pyrrolidin-3-yl] 4-[6-[5-(6-methyl-2-pyridyl)-1H-imidazol-4-yl]-3-quinolyl]thiophene-2-carboxylate], in experiment [1], the Ki is less than 0.0316 nM. For the same compound, the IC50 in experiment [2] is 25.1 to 158 nM.

On to `Cc1nc(-c2n[nH]cc2-c2ccc3ncc(-c4cnn([C@H]5CC[C@@H](N)C5)c4)cc3n2)ccc1F` (racemic) [Compound 96, rac-(1R,3S)-3-[4-[6-[3-(5-fluoro-6-methyl-2-pyridyl)-1H-pyrazol-4-yl]-1,5-naphthyridin-3-yl]pyrazol-1-yl]cyclopentanamine], for which the Ki in experiment [1] was less than 0.0316 nM. The IC50 in experiment [2] is 25.1 to 158 nM.

Turning to `Cc1cccc(-c2[nH]cnc2-c2ccc3ncc(NC4CNC4)cc3c2)n1` [Compound 50, N-(azetidin-3-yl)-6-[5-(6-methyl-2-pyridyl)-1H-imidazol-4-yl]quinolin-3-amine], the Ki in experiment [1] is 0.0398 to 0.316 nM. Moreover, the IC50 in experiment [2] is 25.1 to 158 nM.

As for `Cc1cccc(-c2[nH]cnc2-c2ccc3ncc(C4=CCC(NC(C)C)CC4)cc3n2)n1` (stereo not drawn) [Compound 258, N-isopropyl-4-(6-(5-(6-methylpyridin-2-yl)-1H imidazol-4-yl)-1,5-naphthyridin-3-yl)cyclohex-3-en-1-amine], the Ki in experiment [1] was less than 0.0316 nM. In addition, the IC50 in experiment [2] is 25.1 to 158 nM.

In the case of `Cc1cccc(-c2n[nH]cc2-c2ccc3ncc(N4CCN(CCNC(C)C)CC4)cc3n2)n1` [Compound 637, N-[2-[4-[6-[3-(6-methyl-2-pyridyl)-1H-pyrazol-4-yl]-1,5-naphthyridin-3-yl]piperazin-1-yl]ethyl]propan-2-amine], the Ki in experiment [1] was 0.0398 to 0.316 nM. Further, the IC50 in experiment [2] is 25.1 to 158 nM.

Take `Cc1cccc(-c2[nH]cnc2-c2ccc3ncc(N4CCC(C(=O)O[C@@H]5CCNC5)CC4)cc3c2)n1` [Compound 41, [(3R)-pyrrolidin-3-yl] 1-[6-[5-(6-methyl-2-pyridyl)-1H-imidazol-4-yl]-3-quinolyl]piperidine-4-carboxylate]: in experiment [1], the Ki was 0.0398 to 0.316 nM. In addition, in experiment [2], the IC50 was 25.1 to 158 nM.

Take `Cc1cccc(-c2[nH]cnc2-c2ccc3ncc(-c4ncc(C(=O)OCCN5CCNCC5)s4)cc3c2)n1` [Compound 1187, 2-piperazin-1-ylethyl 2-[6-[5-(6-methyl-2-pyridyl)-1H-imidazol-4-yl]-3-quinolyl]thiazole-5-carboxylate]: the Ki in experiment [1] is 0.0398 to 0.316 nM. Further, the IC50 in experiment [2] is 25.1 to 158 nM.
